{"source": "patent US20240285631A1", "about": "“METHODS OF TREATING VASCULAR MALFORMATIONS” (priority 2023, published 2024)", "test_system": "human umbilical vein endothelial cells", "assay": "Proliferation of human umbilical vein endothelial cells assessed by EdU uptake", "assay_type": "cell-based", "conditions": "in vitro, dose response", "description": "FIG. 16 illustrates palbociclib, CVT-313 and ribociclib dose response effects on proliferation of human umbilical vein endothelial cells assessed by EdU uptake.\nThis example discusses that endothelial cell cycle dysregulation is a mechanism involved in the development of arterio-venous malformations in HHT, as well as other types of vascular malformations named above. Palbociclib, a FDA-approved cell cycle inhibitor, could be used to prevent arterio-venous and other malformations, including venous, capillary, lymphatic and cerebral cavernous malformations.", "data": [{"compound": "COc1ccc(CNc2nc(N(CCO)CCO)nc3c2ncn3C(C)C)cc1", "note": "[CVT-313, 2-[2-hydroxyethyl-[6-[(4-methoxyphenyl)methylamino]-9-propan-2-ylpurin-2-yl]amino]ethanol]", "values": [{"measurement": "EC proliferation assessed by EdU uptake", "result": "inhibit EC proliferation"}]}, {"compound": "CN(C)C(=O)c1cc2cnc(Nc3ccc(N4CCNCC4)cn3)nc2n1C1CCCC1", "note": "[Ribociclib, 7-cyclopentyl-N,N-dimethyl-2-[(5-piperazin-1-ylpyridin-2-yl)amino]pyrrolo[2,3-d]pyrimidine-6-carboxamide]", "values": [{"measurement": "EC proliferation assessed by EdU uptake", "result": "inhibit EC proliferation"}]}]}
